# Test results: patent US7026339B2, “Inhibitors of HCV NS5B polymerase” (priority 2003, dated 2006)
# Tested on: HuH-7 replicon cells 5–15 and 9–13 (HCV replication)
# Test: Inhibition of viral replication in HuH-7 replicon cells (HCV RNA / GAPDH RNA by multiplex RT-PCR)
# Format: cell-based
# Details: Hepatitis C virus, 72 h; inhibiting 50% of replication; HuH-7 replicon cells, 3 days; read-out: IC50
# Summary of the method: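 HCV and GAPDH RNA were measured by multiplex TaqMan RT-PCR (HCV 5′ untranslated region) after 3-day compound treatment at 37 °C, final 100 μM–1 μM in 1% DMSO. Cells were plated 24 h beforehand at 7×10^3/well. Read-out: HCV-to-GAPDH ratio expressed as percent control versus untreated cells.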
row,Compound,IC50
1,"CSc1ccc(CC(=O)N/N=C/c2ccccc2OS(=O)(=O)c2ccc(C(F)(F)F)cc2)cc1 [Compound 26, 2-[(E)-(2-{2-[4-(methylthio)phenyl]acetyl}hydrazono)methyl]-phenyl 4-(trifluoromethyl)benzenesulfonate]",< 5 µM
2,"O=C(Cc1ccccc1)N/N=C/c1ccccc1OCc1cccc2ccccc12 [Compound 238, N′-{(1E)-[2-(1-naphthylmethoxy)phenyl]methylene}-2-phenylacetohydrazide]",5 to 50 µM
3,"COc1cccc(CC(=O)N/N=C/c2ccccc2OS(=O)(=O)c2ccc(OCc3cnc(Cl)s3)cc2)c1 [Compound 225, 2-((E)-{2-[2-(3-methoxyphenyl)acetyl]hydrazono}methyl)-phenyl 4-[(2-chloro-1,3-thiazol-5-yl)methoxy]benzenesulfonate]",> 50 µM
4,"COc1ccc2[nH]cc(CC(=O)N/N=C/c3ccccc3OS(=O)(=O)c3ccc(C(F)(F)F)cc3)c2c1 [Compound 49, 2-((E)-{2-[2-(5-methoxy-1H-indol-3-yl)acetyl]hydrazono}methyl)phenyl 4-(trifluoromethyl)benzenesulfonate]",5 to 50 µM
5,"COc1ccc(CC(=O)N/N=C/c2ccccc2OS(=O)(=O)c2ccc(C(F)(F)F)cc2)cc1 [Compound 44, 2-((E)-{2-[2-(4-methoxyphenyl)acetyl]hydrazono}methyl)-phenyl 4-(trifluoromethyl)benzenesulfonate]",< 5 µM
6,"COc1cccc(CC(=O)N/N=C/c2ccccc2OS(=O)(=O)c2ccc3nsnc3c2)c1 [Compound 182, 2-((E)-{2-[2-(3-methoxyphenyl)acetyl]hydrazono}methyl)-phenyl 2,1,3-benzothiadiazole-5-sulfonate]",< 5 µM
7,"COc1ccccc1C(=O)N/N=C/c1ccccc1OS(=O)(=O)c1ccc(C(F)(F)F)cc1 [Compound 87, 2-{(E)-[2-(2-methoxybenzoyl)hydrazono]methyl}phenyl4-(trifluoromethyl)benzenesulfonate]",> 50 µM
8,"Cc1ccc(S(=O)(=O)Oc2cnccc2/C=N/NC(=O)Cc2cccc(Cl)c2)cc1 [Compound 228, 4-((E)-{2-[2-(3-chlorophenyl)acetyl]hydrazono}methyl)-pyridin-3-yl 4-methylbenzenesulfonate]",< 5 µM
9,"O=C(Cc1cc(F)ccc1F)N/N=C/c1ccccc1OS(=O)(=O)c1ccc(C(F)(F)F)cc1 [Compound 31, 2-((E)-{2-[2-(2,5-difluorophenyl)acetyl]hydrazono}methyl)-phenyl 4-(trifluoromethyl)benzenesulfonate]",< 5 µM
10,"COc1cccc(CC(=O)N/N=C/c2c(Cl)cccc2OS(=O)(=O)c2ccc(C(F)(F)F)cc2)c1 [Compound 193, 3-chloro-2-((E)-{[(3-methoxyphenyl)acetyl]hydrazono}methyl)-phenyl 4-(trifluoromethyl)benzenesulfonate]",< 5 µM
11,"COc1cccc(CC(=O)N/N=C/c2ccccc2OS(=O)(=O)c2ccc(C(C)=O)cc2)c1 [Compound 195, 2-((E)-{2-[2-(3-methoxyphenyl)acetyl]hydrazono}methyl)-phenyl 4-acetylbenzenesulfonate]",< 5 µM
12,"COc1cccc(CC(=O)N/N=C/c2ccccc2OS(=O)(=O)c2ccc(OC)cc2OC)c1 [Compound 154, 2-((E)-{2-[2-(3-methoxyphenyl)acetyl]hydrazono}methyl)-phenyl 2,4-dimethoxybenzenesulfonate]",< 5 µM
13,"O=C(Cc1ccc(SC(F)(F)F)cc1)N/N=C/c1ccccc1OS(=O)(=O)c1ccc(C(F)(F)F)cc1 [Compound 19, 2-{(E)-[2-(2-{4-[(trifluoromethyl)thio]phenyl}acetyl)hydra-zono]methyl}phenyl 4-(trifluoromethyl)benzenesulfonate]",5 to 50 µM
14,"O=C(Cc1ccc(F)c(F)c1F)N/N=C/c1ccccc1OS(=O)(=O)c1ccc(C(F)(F)F)cc1 [Compound 16, 2-((E)-{2-[2-(2,3,4-trifluorophenyl)acetyl]hydrazono}methyl)-phenyl 4-(trifluoromethyl)benzenesulfonate]",< 5 µM
